Laboratory results as given in US20050164993A1, “Methods of treating allergic reactions” (priority 2002, published 2005).

Test system: not given
Assay: not given
Conditions: based on steady-state pharmacokinetics; cited from earlier work

| SMILES | plasma antibiotic threshold level [µg/mL] |
| --- | --- |
| C[C@H]1c2cccc(O)c2C(=O)C2=C(O)[C@]3(O)C(=O)C(C(N)=O)=C(O)[C@@H](N(C)C)[C@@H]3[C@@H](O)[C@@H]21 [Doxycycline, 6α-deoxy-5-hydroxytetracycline, reference compound] | 1.0 |
| CN(C)c1ccc(O)c2c1C[C@H]1C[C@H]3[C@H](N(C)C)C(O)=C(C(N)=O)C(=O)[C@@]3(O)C(O)=C1C2=O [Minocycline, 7-dimethylaminotetracycline] | 0.8 |
| CN(C)[C@@H]1C(=O)C(C(N)=O)=C(O)[C@@]2(O)C(=O)C3=C(O)c4c(O)cccc4[C@@](C)(O)[C@H]3C[C@@H]12 [Tetracycline, reference compound] | 0.5 |

Test system: BALB/c 3T3 (CCL-163) cells
Assay: 3T3 Neutral Red uptake phototoxicity assay (with/without UVA)
Conditions: not given
Description: Streptomycin sulfate ([…]) and penicillin (100 IU/ml) were added to the medium after the cells were treated with test article in 96-well plates.
Serial dilutions of the tetracycline derivatives were prepared in DMSO at concentrations 100× to final testing concentration. The COL dilutions in DMSO were then diluted in Hanks' Balanced Salt Solution (HBSS) for application to the cells. The final DMSO concentration was 1% in treated and control cultures. A dose range finding assay is conducted with eight serial dilutions covering a range of 100-0.03 μg/ml in half log steps. Definitive assays are conducted with 6-8 serial dilutions prepared in quarter log steps, centered on the expected 50% toxicity point as determined in the dose range finding assay. One hundred 100 μg/ml was the highest dose recommended to prevent false negative results from UV absorption by the dosing solutions. One dose range finding and at least two definitive trials were performed on each tetracycline derivative and control compound.
Controls: Each assay included both negative (solvent) and positive controls. Twelve wells of negative control cultures were used on each 96-well plate. Chlorpromazine (Sigma Chemicals) was used as the positive control and was prepared and dosed like the test tetracycline derivatives.
Solar Simulator: A Dermalight SOL 3 solar simulator, equipped with a UVA H1 filter (320-400 nm), was adjusted to the appropriate height. Measurement of energy through the lid of a 96-well microtiter plate was carried out using a calibrated UV radiometer UVA sensor. Simulator height was adjusted to deliver 1.7±0.1 mW/cm^2 of UVA energy (resulting dose was 1 J/cm^2 per 10 minutes of exposure).
Phototoxicity Assay: Duplicate plates were prepared for each test material by seeding 10^4 3T3 cells per well in complete medium 24 hours before treatment. Prior to treatment, the medium was removed, and the cells washed once with 125 μl of prewarmed HBSS. Fifty μl of prewarmed HBSS were added to each well. Fifty μl of each test article dilution were added to the appropriate wells and the plates returned to the incubator for approximately one hour. Six wells were treated with each dose of test or control article on each plate. Following the 1 hr incubation, the plates designated for the photo irradiation were exposed (with the lid on) to 1.7±0.1 mW/cm^2 UVA light for 50±2 minutes at room temperature resulting in an irradiation dose of 5 J/cm^2. Duplicate plates, designated for the measurement of cytotoxicity without light, were kept in the dark room temperature for 50±2 minutes. After the 50 minute exposure period (with or without light) the test article dilutions were decanted from the plates and the cells washed once with 125 μl of HBSS. One hundred μl of medium were added to all wells and the cells incubated as above for 24±1 hours.
After 24 hours of incubation, the medium was decanted and 100 μl of the Neutral Red containing medium were added to each well. The plates were returned to the incubator and incubated for approximately 3 hours. After 3 hours, the medium was decanted and each well rinsed once with 250 μl of HBSS. The plates were blotted to remove the HBSS and 100 μl of Neutral Red Solvent were added to each well. After a minimum of 20 minutes of incubation at room temperature (with shaking), the absorbance at 550 nm was measured with a plate reader, using the mean of the blank outer wells as the reference. Relative survival was obtained by comparing the amount of neutral red taken by each well treated with the test article and positive control to the neutral red taken up by the average of the negative wells (12 wells) on the same plate. The amount of neutral red taken up by the negative control wells is considered to be 100% survival.

| SMILES | PIF 1 (photoirritancy factor, earlier software) | PIF 2 (photoirritancy factor, OECD Draft Guideline 432) |
| --- | --- | --- |
| NC(=O)C1=C(O)C[C@@H]2C[C@@H]3Cc4cccc(O)c4C(=O)C3=C(O)[C@]2(O)C1=O [COL 3, 6-demethyl-6-deoxy-4-dedimethylaminotetracycline] | 647 | 84.72 |
| CC1c2cccc(O)c2C(=O)C2=C(O)C3(O)C(=O)C(C(N)=O)=C(O)CC3C(O)C21 (stereo not drawn) [COL 8, 4-dedimethylaminodoxycycline] | 165 | 82.61 |
| CN(C)c1ccc(O)c2c1CC1CC3CC(O)=C(C(N)=O)C(=O)C3(O)C(O)=C1C2=O (stereo not drawn) [COL 10, 4-dedimethylaminominocycline] | – | 2.04 |
| NC(=O)C1=C(O)CC2CC3Cc4c([N+](=O)[O-])ccc(O)c4C(=O)C3=C(O)C2(O)C1=O (stereo not drawn) [COL 302, 7-nitro-6-demethyl-6-deoxy-4-dedimethylaminotetracycline] | 23.16 | 23.32 |
| NC(=O)C1=C(O)CC2CC3Cc4ccc([N+](=O)[O-])c(O)c4C(=O)C3=C(O)C2(O)C1=O (stereo not drawn) [COL 303, 9-nitro-6-demethyl-6-deoxy-4-dedimethylaminotetracycline] | 5.27 | 13.82 |
| CN(C)c1ccc2c(c1O)C(=O)C1=C(O)C3(O)C(=O)C(C(N)=O)=C(O)CC3CC1C2 (stereo not drawn) [COL 306, 9-dimethylamino-6-demethyl-6-deoxy-4-dedimethylaminotetracycline] | 1.64 | 1.56 |
| NC(=O)C1=C(O)CC2CC3Cc4c(N)ccc(O)c4C(=O)C3=C(O)C2(O)C1=O (stereo not drawn) [COL 307, 7-amino-6-demethyl-6-deoxy-4-dedimethylaminotetracycline] | 1.17 | – |
| NC(=O)C1=C(O)CC2CC3Cc4ccc(N)c(O)c4C(=O)C3=C(O)C2(O)C1=O (stereo not drawn) [COL 308, 9-amino-6-demethyl-6-deoxy-4-dedimethylaminotetracycline] | 1.0 | – |
| CN(C)CC(=O)Nc1ccc2c(c1O)C(=O)C1=C(O)C3(O)C(=O)C(C(N)=O)=C(O)CC3CC1C2 (stereo not drawn) [COL 309, 9-dimethylaminoacetamido-6-demethyl-6-deoxy-4-dedimethylaminotetracycline] | 5.17 | 12.87 |
| CCCCCCCCCCCCCCCC(=O)Nc1ccc2c(c1O)C(=O)C1=C(O)C3(O)C(=O)C(C(N)=O)=C(O)CC3CC1C2 (stereo not drawn) [COL 311, 9-palmitamide-6-demethyl-6-deoxy-4-dedimethylaminotetracycline] | 1.0 | – |
| O=C(NCN1CCCC1)C1=C(O)CC2CC3Cc4cccc(O)c4C(=O)C3=C(O)C2(O)C1=O (stereo not drawn) [COL 312, 2-CONHCH2-pyrrolidin-1-yl-6-demethyl-6-deoxy-4-dedimethylaminotetracycline] | 62.67 | 75.11 |
| O=C(NCN1CCCCC1)C1=C(O)CC2CC3Cc4cccc(O)c4C(=O)C3=C(O)C2(O)C1=O (stereo not drawn) [COL 313, 2-CONHCH2-piperidin-1-yl-6-demethyl-6-deoxy-4-dedimethylaminotetracycline] | 80.27 | 58.22 |
| O=C(NCN1CCOCC1)C1=C(O)CC2CC3Cc4cccc(O)c4C(=O)C3=C(O)C2(O)C1=O (stereo not drawn) [COL 314, 2-CONHCH2-morpholin-1-yl-6-demethyl-6-deoxy-4-dedimethylaminotetracycline] | 41.1 | 89.48 |
| O=C(NCN1CCNCC1)C1=C(O)CC2CC3Cc4cccc(O)c4C(=O)C3=C(O)C2(O)C1=O (stereo not drawn) [COL 315, 2-CONHCH2-piperazin-1-yl-6-demethyl-6-deoxy-4-dedimethylaminotetracycline] | 15.8 | 35.30 |
| CC(=O)Nc1ccc2c(c1O)C(=O)C1=C(O)C3(O)C(=O)C(C(N)=O)=C(O)CC3C(O)C1C2C (stereo not drawn) [COL 801, 9-acetamido-4-dedimethylaminodoxycycline] | 1.0 | – |
| CC1c2ccc(NC(=O)CN(C)C)c(O)c2C(=O)C2=C(O)C3(O)C(=O)C(C(N)=O)=C(O)CC3C(O)C21 (stereo not drawn) [COL 802, 9-dimethylaminoacetamido-4-dedimethylaminodoxycycline] | 1.0 | – |
| CC1c2ccc([N+](=O)[O-])c(O)c2C(=O)C2=C(O)C3(O)C(=O)C(C(N)=O)=C(O)CC3C(O)C21 (stereo not drawn) [COL 804, 9-nitro-4-dedimethylaminodoxycycline] | 1.0 | – |
| CC1c2ccc(N)c(O)c2C(=O)C2=C(O)C3(O)C(=O)C(C(N)=O)=C(O)CC3C(O)C21 (stereo not drawn) [COL 805, 9-amino-4-dedimethylaminodoxycycline] | 1.0 | – |
| CC1c2cccc(O)c2C(=O)C2=C(O)C3(O)C(=O)C(C(=O)NCN4CCCC4)=C(O)CC3C(O)C21 (stereo not drawn) [COL 807, 2-CONHCH2-pyrrolidin-1-yl-4-dedimethylaminodoxycycline] | 40.4 | – |
| CC1c2cccc(O)c2C(=O)C2=C(O)C3(O)C(=O)C(C(=O)NCN4CCCCC4)=C(O)CC3C(O)C21 (stereo not drawn) [COL 808, 2-CONHCH2-piperidin-1-yl-4-dedimethylaminodoxycycline] | 46.45 | – |
| CN(C)c1cc([N+](=O)[O-])c(O)c2c1CC1CC3CC(O)=C(C(N)=O)C(=O)C3(O)C(O)=C1C2=O (stereo not drawn) [COL 1002, 9-nitro-4-dedimethylaminominocycline] | – | 1.35 |

Same assay, conditions: 3T3 cells, 5 J/cm^2 UVA vs dark; <0.1 nonphototoxin, 0.1 to <0.15 probable, >=0.15 clear phototoxin

| SMILES | MPE (mean photo effect) |
| --- | --- |
| CN(C)[C@@H]1C(=O)C(C(N)=O)=C(O)[C@@]2(O)C(=O)C3=C(O)c4c(O)cccc4[C@@](C)(O)[C@H]3C[C@@H]12 [Tetracycline, reference compound] | 0.340 |

Same assay, conditions: IC50(-UVA)/IC50(+UVA), 3T3 cells; >5 indicative of phototoxic potential

| SMILES | PIF 1 (photoirritancy factor, earlier software) |
| --- | --- |
| CN(C)[C@@H]1C(=O)C(C(N)=O)=C(O)[C@@]2(O)C(=O)C3=C(O)c4c(O)cccc4[C@@](C)(O)[C@H]3C[C@@H]12 [Tetracycline, reference compound] | 5.38 |

Same assay, conditions: mouse

| SMILES | PIF 2 (photoirritancy factor, OECD Draft Guideline 432) | PIF 1 (photoirritancy factor, earlier software) |
| --- | --- | --- |
| CN(C)CCCN1c2ccccc2Sc2ccc(Cl)cc21 [Chlorpromazine, reference compound] | 40.38 | – |
| C[C@H]1c2cccc(O)c2C(=O)C2=C(O)[C@]3(O)C(=O)C(C(N)=O)=C(O)[C@@H](N(C)C)[C@@H]3[C@@H](O)[C@@H]21 [Doxycycline, 6α-deoxy-5-hydroxytetracycline, reference compound] | 26.71 | 23.37 |
